Data from ChEMBL document CHEMBL4715849, “Recent Progress in the Discovery of Antifungal Agents Targeting the Cell Wall” (J Med Chem, 2020).
≈ marks a conversion by molar mass, not a printed value. Each block holds one compound with its values, some of them ahead of it.

Key:
Aspergillus fumigatus [1] = assay: Antifungal activity against Aspergillus fumigatus IAM2034 infected in iv dosed ICR mouse assessed as protection against fungus-induced lethal infection dosed thrice at 48 hrs interval immediately following fungal challenge and measured on day 20 post infection by Litchfield -Wilcoxon method; format: functional; settings: 480 h, time 20 day, read-out: PD50
Candida albicans [2] = assay: Antifungal activity against Candida albicans A9540 infected in iv dosed ICR mouse assessed as protection against fungus-induced lethal infection dosed thrice at 48 hrs interval immediately following fungal challenge and measured on day 20 post infection by Litchfield -Wilcoxon method; format: functional; settings: 480 h, time 20 day, read-out: PD50
Candida albicans [3] = assay: Antifungal activity against Candida albicans infected in mouse assessed as protection against fungus-induced lethal infection; format: functional; settings: read-out: PD50
[4] = Solubility in water at pH 7.2; format: physicochemical
Candida albicans [5] = assay: Antifungal activity against Candida albicans A9540 incubated for 24 hrs by broth microdilution method; format: functional
Candida albicans [6] = assay: Antifungal activity against Candida albicans 83-2-14 incubated for 24 hrs by broth microdilution method; format: functional
Candida albicans [7] = assay: Antifungal activity against Candida albicans ATCC 32354 incubated for 24 hrs by broth microdilution method; format: functional
Candida albicans [8] = assay: Antifungal activity against Candida albicans IAM 888 incubated for 24 hrs by broth microdilution method; format: functional
Candida tropicalis [9] = assay: Antifungal activity against Candida tropicalis 85-5 incubated for 24 hrs by broth microdilution method; format: functional
Candida tropicalis [10] = assay: Antifungal activity against Candida tropicalis IFO10241 incubated for 24 hrs by broth microdilution method; format: functional
Cryptococcus neoformans [11] = assay: Antifungal activity against Cryptococcus neoformans MY2062 incubated for 24 hrs by liquid microdilution assay; format: functional
Nakaseomyces glabratus [12] = assay: Antifungal activity against Candida glabrata MY1381 incubated for 24 hrs by liquid microdilution assay; format: functional
Candida albicans [13] = assay: Antifungal activity against Candida albicans; format: functional
Aspergillus fumigatus [14] = assay: Antifungal activity against Aspergillus fumigatus MF5668 assessed as inhibition of normal hyphal growth; format: functional; settings: time 24 hrs, read-out: MEC
Aspergillus flavus = assay: Antifungal activity against Aspergillus flavus MF383 incubated for 24 hrs by liquid microdilution assay; format: functional
[15] = tested on: Meyerozyma guilliermondii; assay: Antifungal activity against Candida guilliermondii CLY346 incubated for 24 hrs by liquid microdilution assay; format: functional
Cryptococcus neoformans [16] = assay: Antifungal activity against Cryptococcus neoformans MY2061 incubated for 24 hrs by liquid microdilution assay; format: functional
Candida albicans [17] = assay: Antifungal activity against Candida albicans MY1055 incubated for 24 hrs by liquid microdilution assay; format: functional
[18] = tested on: Meyerozyma guilliermondii; assay: Antifungal activity against Candida guilliermondii CLY308 incubated for 24 hrs by liquid microdilution assay; format: functional
Candida albicans [19] = assay: Antifungal activity against Candida albicans MY2301 incubated for 24 hrs by liquid microdilution assay; format: functional
[20] = Inhibition of Candida albicans MY1055 1,3-beta-D-glucan synthase assessed as reduction in glucan synthesis by measuring decrease in incorporation of [14C]glucose preincubated for 30 mins followed by pulse-labelling with [U-14C]D-glucose for 30 mins by autoradiography
Nakaseomyces glabratus [21] = assay: Antifungal activity against Candida glabrata CLY574 incubated for 24 hrs by liquid microdilution assay; format: functional

SMILES: COc1cc(O)c2c(c1)C(=O)c1c(cc3c(c1O)-c1c(cc(C)c(C(=O)N[C@H](CO)C(=O)O)c1O)[C@H](O[C@@H]1O[C@H](C)[C@H](N(C)C)[C@H](O[C@@H]4OC[C@@H](O)[C@H](O)[C@H]4O)[C@H]1O)[C@H]3O)C2=O
ED50 (Aspergillus fumigatus [1]): 23 mg/kg | ED50 (Candida albicans [2]): 15 mg/kg | ED50 (Candida albicans [3]): 50 mg/kg | solubility [4]: > 20 mg/mL

MIC (Candida albicans [5]): 0.1 µg/mL (≈ 0.117 µM) | MIC (Candida albicans [6]): 0.1 µg/mL (≈ 0.117 µM) | MIC (Candida albicans [7]): 0.1 µg/mL (≈ 0.117 µM) | MIC (Candida albicans [8]): 0.1 µg/mL (≈ 0.117 µM) | MIC (Candida tropicalis [9]): 0.1 µg/mL (≈ 0.117 µM) | MIC (Candida tropicalis [10]): 0.1 µg/mL (≈ 0.117 µM)
SMILES: CCC/C=C/C=C/C=C/C(=O)OC[C@H]1O[C@@H](O[C@H]2[C@H](OC(=O)/C=C/C=C/C[C@H](O)/C=C/C=C/C=C/CCC)[C@@H](O)[C@@]3(OCc4cc(O)cc(O)c43)O[C@@H]2CO)[C@H](O)[C@@H](O)[C@H]1O

MIC (Cryptococcus neoformans [11]): > 64 µg/mL | MIC (Nakaseomyces glabratus [12]): 1 µg/mL (≈ 1.41 µM) | MIC (Candida albicans [13]): 0.2 µg/mL (≈ 0.282 µM) | MIC (Aspergillus flavus): ≤ 0.03 µg/mL | MIC [15]: 2 µg/mL (≈ 2.82 µM) | MIC (Cryptococcus neoformans [16]): > 64 µg/mL | MIC (Candida albicans [17]): 0.25 µg/mL (≈ 0.353 µM) | MIC [18]: 1 µg/mL (≈ 1.41 µM) | MIC (Candida albicans [19]): 0.5 µg/mL (≈ 0.705 µM) | IC50 [20]: 0.05 µg/mL (≈ 0.0705 µM) | MIC (Nakaseomyces glabratus [21]): 1 µg/mL (≈ 1.41 µM)
SMILES: CC(=O)O[C@@H]1C[C@]23C4=CC[C@@]5(C)[C@H](C(=O)O)[C@@](C)([C@H](C)C(C)C)CC[C@]5(C)[C@H]4CC[C@H]2[C@@](C)(COC3O)[C@H]1O[C@@H]1O[C@H](CO)[C@@H](O)[C@H](O)[C@H]1O (some centres not stated) [ENFUMAFUNGIN]
minimal effective concentration (Aspergillus fumigatus [14]): ≤ 0.03 µg/mL
